The record followed here is PMC9570267, “A Computational QSAR, Molecular Docking and In Vitro Cytotoxicity Study of Novel Thiouracil-Based Drugs with Anticancer Activity against Human-DNA Topoisomerase II” (International Journal of Molecular Sciences, 2022).

The assay addresses T1, topoisomerase I (Homo sapiens, UniProt P11387).
T1 construct: gene TOP1
T1 sequence (P11387 2-765): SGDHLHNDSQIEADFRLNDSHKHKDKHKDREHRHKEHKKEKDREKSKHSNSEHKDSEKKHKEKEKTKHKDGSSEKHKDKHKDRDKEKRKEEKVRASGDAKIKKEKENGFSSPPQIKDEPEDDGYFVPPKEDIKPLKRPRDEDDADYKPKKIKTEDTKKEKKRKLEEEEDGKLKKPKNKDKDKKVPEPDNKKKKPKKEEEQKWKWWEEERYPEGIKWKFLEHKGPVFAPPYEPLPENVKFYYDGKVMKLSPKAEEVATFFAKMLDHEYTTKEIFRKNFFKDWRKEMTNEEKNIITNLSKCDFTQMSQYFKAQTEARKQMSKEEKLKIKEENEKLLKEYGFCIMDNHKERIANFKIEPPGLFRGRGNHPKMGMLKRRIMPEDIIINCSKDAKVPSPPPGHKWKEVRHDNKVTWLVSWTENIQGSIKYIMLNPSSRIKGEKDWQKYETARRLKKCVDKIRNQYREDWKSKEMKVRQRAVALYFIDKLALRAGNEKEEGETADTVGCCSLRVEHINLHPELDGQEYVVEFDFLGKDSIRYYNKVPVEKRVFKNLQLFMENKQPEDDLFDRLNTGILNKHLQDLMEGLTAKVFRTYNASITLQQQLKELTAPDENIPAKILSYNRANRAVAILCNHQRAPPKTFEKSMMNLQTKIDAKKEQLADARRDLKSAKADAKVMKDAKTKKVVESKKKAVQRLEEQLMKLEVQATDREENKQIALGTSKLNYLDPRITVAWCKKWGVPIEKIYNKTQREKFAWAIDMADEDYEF
As to the kind of experiment: supercoiled plasmid DNA relaxation gel assay (TopoGEN topo I kit). It is filed as biochemical.

For orientation: IC50 means the concentration that gives 50% inhibition. In turn, `COc1ccc(C2C3=C(Nc4[nH]c(=S)[nH]c(=O)c42)c2ccccc2C3=O)cc1` (centres unmarked) [7H] showed an IC50 of 30.9 ± 1.49 µM. Molecule `CN(C)c1ccc(C2C3=C(Nc4[nH]c(=S)[nH]c(=O)c42)c2ccccc2C3=O)cc1` (centres unmarked) [9H] displayed an IC50 of 38.8 ± 2.27 µM. The IC50 values of the last two molecules are within 1.5-fold of each other.
